In patent publication US7846928B2, “Substituted pyrazolopyridines and salts thereof, pharmaceutical compositions comprising same, methods of preparing same and uses of same” (Bayer Schering Pharma AG, priority 2006, dated 2010) one finds IC50 data, which are given here for 24 molecules.

SMILES strings stand for the structures. pIC50: −log10 of the molar value. Some results are limits rather than exact numbers.

The pIC50 is the negative decadic logarithm of the IC50, by convention in mol/L.

The assay has as its target Tie2 (Homo sapiens, UniProt Q02763). The experiment in a line: Tie-2-Kinase HTRF-Assay without kinase preactivation (assay 2). The conditions noted are these: GST-Tie-2 without preactivation, 10 μM ATP; pIC50 = -log IC50 molar. The assay is classed as biochemical. More on the design: fusion protein of GST and the intracellular domains of Tie-2; GST; made in house; host or cells: insect cells (Hi-5). An excerpt:
Tie2-inhibitory activity of compounds of the present invention was quantified employing two Tie2 HTRF assay as described in the following paragraphs.
A recombinant fusion protein of GST and the intracellular domains of Tie-2, expressed in insect cells (Hi-5) and purified by Glutathion-Sepharose affinity chromatography was used as kinase. Alternatively, commercially available GST-Tie2-fusion protein (Upstate Biotechnology, Dundee, Scotland) can be used As substrate for the kinase reaction the biotinylated peptide biotin-Ahx-EPKDDAYPLYSDFG (C-terminus in amid form) was used which can be purchased e.g. from the company Biosynthan GmbH (Berlin-Buch, Germany). Detection of phosphorylated product is achieved specifically by a trimeric detection complex consisting of the phosphorylated substrate, streptavidin-XLent (SA-XLent) which binds to biotin, and Europium Cryptate-labeled anti-phosphotyrosine antibody PT66 which binds to phosphorylated tyrosine.
Tie-2 (3.5 ng/measurement point) was incubated for 60 min at 22° C. in the presence of 10 μM adenosine-tri-phosphate (ATP) and 1 μM substrate peptide (biotin-Ahx-EPKDDAYPLYSDFG-NH2) with different concentrations of test compounds (0 μM and concentrations in the range 0.001-20 μM) in 5 μl assay buffer [50 mM Hepes/NaOH pH 7, 10 mM MgCl2, 0.5 mM MnCl2, 1.0 mM dithiothreitol, 0.01% NP40, protease inhibitor mixture (“Complete w/o EDTA” from Roche, 1 tablet per 2.5 ml), 1% (v/v) dimethylsulfoxide]. The reaction was stopped by the addition of 5 μl of an aqueous buffer (25 mM Hepes/NaOH pH 7.5, 0.28% (w/v) bovine serum albumin) containing EDTA (90 mM) and the HTRF (Homogeneous Time Resolved Fluorescence) detection reagents streptavidine-XLent (0.2 μM, from Cis Biointernational, Marcoule, France) and PT66-Eu-Chelate (0.3 ng/μl; a europium-chelate labelled anti-phospho-tyrosine antibody from Perkin Elmer).
The resulting mixture was incubated 1 h at 22° C. to allow the binding of the biotinylated phosphorylated peptide to the streptavidine-XLent and the PT66-Eu-Chelate. Subsequently the amount of phosphorylated substrate peptide was evaluated by measurement of the resonance energy transfer from the PT66-Eu-Chelate to the streptavidine-XLent. Therefore, the fluorescence emissions at 620 nm and 665 nm after excitation at 350 nm was measured in a HTRF reader, e.g. a Rubystar (BMG Labtechnologies, Offenburg, Germany) or a Viewlux (Perkin-Elmer). The ratio of the emissions at 665 nm and at […] was taken as the measure for the amount of phosphorylated substrate peptide. The data were normalised (enzyme reaction without inhibitor=0% inhibition, all other assay components but no enzyme=100% inhibition) and IC50 values were calculated by a 4 parameter fit using an inhouse software.
A general note: TR-FRET usually uses a lanthanide donor and a delayed reading to cut background.

Chain of Tie2 (Q02763 770-1124 limits assumed): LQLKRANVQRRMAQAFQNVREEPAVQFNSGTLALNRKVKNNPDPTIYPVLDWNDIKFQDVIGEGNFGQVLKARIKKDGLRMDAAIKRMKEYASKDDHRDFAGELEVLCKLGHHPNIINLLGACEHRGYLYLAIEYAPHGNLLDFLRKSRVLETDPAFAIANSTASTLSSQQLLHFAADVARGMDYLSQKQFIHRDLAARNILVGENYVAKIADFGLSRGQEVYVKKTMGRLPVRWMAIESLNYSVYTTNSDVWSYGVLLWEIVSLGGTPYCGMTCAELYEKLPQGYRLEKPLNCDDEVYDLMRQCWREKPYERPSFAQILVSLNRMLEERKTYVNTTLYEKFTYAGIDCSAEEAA

As to `CCc1cccc(NC(=O)Nc2ccc(-c3cc(C(C)(C)C)nc4[nH]ncc34)cc2)c1` [1.1, 1-[4-(6-tert-Butyl-1H-pyrazolo[3,4-b]pyridin-4-yl)-phenyl]-3-(3-ethylphenyl)-urea], the pIC50 is > 6.30.

On to `CC(C)c1cc(-c2ccc(NC(=O)Nc3cccc(C(F)(F)F)c3)cc2)c2cn[nH]c2n1` [1.2, 1-[4-(6-Isopropyl-1H-pyrazolo[3,4-b]pyridin-4-yl)-phenyl]-3-(3-trifluoromethyl-phenyl)-urea], for which the pIC50 was > 6.30.

With `CC(C)c1cc(-c2ccc(NC(=O)Nc3cccc(C(F)(F)F)c3)cc2)c2cnn(C)c2n1` [1.3, 1-[4-(6-Isopropyl-1-methyl-1H-pyrazolo[3,4-b]pyridin-4-yl)-phenyl]-3-(3-trifluoromethyl-phenyl)-urea], the pIC50 was > 6.30.

In the case of `Cn1ncc2c(-c3ccc(NC(=O)Nc4cccc(C(F)(F)F)c4)cc3)ccnc21` [1.4, 1-[4-(1-Methyl-1H-pyrazolo[3,4-b]pyridin-4-yl)-phenyl]-3-(3-trifluoromethyl-phenyl)-urea], the pIC50 is > 6.30.

With `Cc1ccc(F)c(NC(=O)Nc2ccc(-c3ccnc4c3cnn4C)cc2)c1` [1.7, 1-(2-Fluoro-5-methyl-phenyl)-3-[4-(1-methyl-1H-pyrazolo[3,4-b]pyridin-4-yl)-phenyl]-urea], the pIC50 is > 6.30.

As to `Cn1ncc2c(-c3ccc(NC(=O)Nc4cc(C(F)(F)F)ccc4F)cc3)ccnc21` [1.8, 1-(2-Fluoro-5-trifluoromethyl-phenyl)-3-[4-(1-methyl-1H-pyrazolo[3,4-b]-pyridin-4-yl)-phenyl]-urea], the negative-log IC50 (pIC50) was > 6.30.

Molecule `Cc1cccc(NC(=O)Nc2ccc(-c3cc(C(C)(C)C)nc4[nH]ncc34)cc2)c1` [1.11, 1-[4-(6-tert-Butyl-1H-pyrazolo[3,4-b]pyridin-4-yl)-phenyl]-3-m-tolyl-urea] gave a pIC50 of 6.00 to 6.30.

For the molecule `CN1CCN(Cc2ccc(NC(=O)Nc3ccc(-c4cc(C(C)(C)C)nc5[nH]ncc45)cc3)cc2C(F)(F)F)CC1` [1.15, 1-[4-(6-tert-Butyl-1H-pyrazolo[3,4-b]pyridin-4-yl)-phenyl]-3-[4-(4-methyl-piperazin-1-ylmethyl)-3-trifluoromethyl-phenyl]-urea], the negative-log IC50 (pIC50) is > 6.30.

For the molecule `Cc1cc(-c2ccc(NC(=O)Nc3cccc(C(F)(F)F)c3)cc2)c2cn[nH]c2n1` [1.18, 1-[4-(6-Methyl-1H-pyrazolo[3,4-b]pyridin-4-yl)-phenyl]-3-(3-trifluoromethyl-phenyl)-urea], the pIC50 is > 6.30.

On to `O=C(Nc1ccc(-c2ccnc3[nH]ncc23)cc1)Nc1cccc(C(F)(F)F)c1` [1.20, 1-[4-(1H-Pyrazolo[3,4-b]pyridin-4-yl)-phenyl]-3-(3-trifluoromethyl-phenyl)-urea], for which the pIC50 is > 6.30.

Turning to `Cc1ccc(F)c(NC(=O)Nc2ccc(-c3ccnc4[nH]ncc34)cc2)c1` [1.22, 1-(2-Fluoro-5-methyl-phenyl)-3-[4-(1H-pyrazolo[3,4-b]pyridin-4-yl)-phenyl]-urea], the pIC50 was 6.00 to 6.30.

On to `CN1CCC(Oc2ccc(NC(=O)Nc3ccc(-c4ccnc5c4cnn5C)cc3)cc2C(F)(F)F)CC1` [1.23, 1-[4-(1-Methyl-piperidin-4-yloxy)-3-trifluoromethyl-phenyl]-3-[4-(1-methyl-1H-pyrazolo[3,4-b]pyridin-4-yl)-phenyl]-urea], for which the pIC50 was > 6.30.

Take `CN1CCN(Cc2ccc(NC(=O)Nc3ccc(-c4ccnc5c4cnn5C)cc3)cc2C(F)(F)F)CC1` [1.24, 1-[4-(4-Methyl-piperazin-1-ylmethyl)-3-trifluoromethyl-phenyl]-3-[4-(1-methyl-1H-pyrazolo[3,4-b]pyridin-4-yl)-phenyl]-urea]: the pIC50 is > 6.30.

Take `CN(C)C(=O)C1(c2cc(-c3ccc(NC(=O)Nc4cccc(C(F)(F)F)c4)cc3)c3cnn(C)c3n2)CC1` [1.26, 1-(1-Methyl-4-{4-[3-(3-trifluoromethyl-phenyl)-ureido]-phenyl}-1H-pyrazolo[3,4-b]pyridin-6-yl)-cyclopropane-carboxylic acid dimethylamide]: the pIC50 was > 6.30.

In the case of `Cc1ccc(F)c(NC(=O)Nc2ccc(-c3cc(C4(C(=O)N(C)C)CC4)nc4c3cnn4C)cc2)c1` [1.29, 1-(4-{4-[3-(2-Fluoro-5-methyl-phenyl)-ureido]-phenyl}-1-methyl-1H-pyrazolo[3,4-b]pyridin-6-yl)-cyclopropane-carboxylic acid dimethylamide], the pIC50 is > 6.30.

Regarding `CN1CCN(Cc2ccc(NC(=O)Nc3ccc(-c4ccnc5[nH]ncc45)cc3)cc2C(F)(F)F)CC1` [1.33, 1-[4-(4-Methyl-piperazin-1-yl-methyl)-3-trifluoromethyl-phenyl]-3-[4-(1H-pyrazolo[3,4-b]pyridin-4-yl)-phenyl]-urea], the pIC50 was > 6.30.

For the molecule `Cn1ncc2c(-c3ccc(NC(=O)Nc4cccc(C(F)(F)F)c4)cc3)cc(C3CCC3)nc21` [1.37, 1-[4-(6-Cyclobutyl-1-methyl-1H-pyrazolo[3,4-b]pyridin-4-yl)-phenyl]-3-(3-trifluoromethyl-phenyl)-urea], the negative-log IC50 (pIC50) was > 6.30.

Regarding `Cn1ncc2c(-c3ccc(NC(=O)Nc4cccc(C(F)(F)F)c4)cc3)cc(C3CCCCC3)nc21` [1.38, 1-[4-(6-Cyclohexyl-1-methyl-1H-pyrazolo[3,4-b]pyridin-4-yl)-phenyl]-3-(3-trifluoromethyl-phenyl)-urea], the pIC50 was > 6.30.

For `Cc1cc(-c2ccc(NC(=O)Nc3cc(F)cc(C(F)(F)F)c3)cc2)c2cnn(C)c2n1` [2.4, 1-[4-(1,6-Dimethyl-1H-pyrazolo[3,4-b]pyridin-4-yl)-phenyl]-3-(3-fluoro-5-trifluoromethyl-phenyl)-urea], the pIC50 was > 6.30.

Regarding `Cc1cc(-c2ccc(NC(=O)Nc3ccc(F)c(C(F)(F)F)c3)cc2)c2cnn(C)c2n1` [2.5, 1-[4-(1,6-Dimethyl-1H-pyrazolo[3,4-b]pyridin-4-yl)-phenyl]-3-(4-fluoro-3-trifluoromethyl-phenyl)-urea], the negative logarithm of the IC50 (pIC50) was 6.00 to 6.30.

Turning to `COc1ccc(C(F)(F)F)cc1NC(=O)Nc1ccc(-c2cc(C)nc3c2cnn3C)cc1` [2.7, 1-[4-(1,6-Dimethyl-1H-pyrazolo[3,4-b]pyridin-4-yl)-phenyl]-3-(2-methoxy-5-trifluoromethyl-phenyl)-urea], the pIC50 was > 6.30.

Turning to `Cn1ncc2c(-c3ccc(NC(=O)Nc4cccc(C(F)(F)F)c4)cc3)cc(CN3CCOCC3)nc21` [3.2, 1-[4-(1-Methyl-6-morpholin-4-ylmethyl-1H-pyrazolo[3,4-b]pyridin-4-yl)-phenyl]-3-(3-trifluoromethyl-phenyl)-urea], the pIC50 is > 6.30.

For the molecule `CCc1cccc(NC(=O)Nc2ccc(-c3cc(CN4CCOCC4)nc4c3cnn4C)cc2)c1` [3.4, 1-(3-Ethyl-phenyl)-3-[4-(1-methyl-6-morpholin-4-ylmethyl-1H-pyrazolo[3,4-b]pyridin-4-yl)-phenyl]-urea], the pIC50 was > 6.30.

Regarding `Cc1ccc(F)c(NC(=O)Nc2ccc(-c3cc(CN4CCOCC4)nc4c3cnn4C)cc2)c1` [3.5, 1-(2-Fluoro-5-methyl-phenyl)-3-[4-(1-methyl-6-morpholin-4-ylmethyl-1H-pyrazolo[3,4-b]pyridin-4-yl)-phenyl]-urea], the pIC50 was > 6.30.
